In patent US11434479B2, “Sialic acid binding polypeptide” (priority 2017, dated 2022) one finds binding affinity data, which are given here for three compounds.

The target in test [1] is T1, Streptococcus pneumoniae NanB fragment (residues 30-697, SEQ ID NO:4) variant Sia-PS5, E541Q (Streptococcus pneumoniae serotype 4, UniProt Q54727, E541Q).
T1 construct: exemplified by a NanB fragment (residues 30-697); poly-histidine; made in house; host or cells: pET28a+ based plasmid
T1 sequence (Q54727 30-692 E541Q): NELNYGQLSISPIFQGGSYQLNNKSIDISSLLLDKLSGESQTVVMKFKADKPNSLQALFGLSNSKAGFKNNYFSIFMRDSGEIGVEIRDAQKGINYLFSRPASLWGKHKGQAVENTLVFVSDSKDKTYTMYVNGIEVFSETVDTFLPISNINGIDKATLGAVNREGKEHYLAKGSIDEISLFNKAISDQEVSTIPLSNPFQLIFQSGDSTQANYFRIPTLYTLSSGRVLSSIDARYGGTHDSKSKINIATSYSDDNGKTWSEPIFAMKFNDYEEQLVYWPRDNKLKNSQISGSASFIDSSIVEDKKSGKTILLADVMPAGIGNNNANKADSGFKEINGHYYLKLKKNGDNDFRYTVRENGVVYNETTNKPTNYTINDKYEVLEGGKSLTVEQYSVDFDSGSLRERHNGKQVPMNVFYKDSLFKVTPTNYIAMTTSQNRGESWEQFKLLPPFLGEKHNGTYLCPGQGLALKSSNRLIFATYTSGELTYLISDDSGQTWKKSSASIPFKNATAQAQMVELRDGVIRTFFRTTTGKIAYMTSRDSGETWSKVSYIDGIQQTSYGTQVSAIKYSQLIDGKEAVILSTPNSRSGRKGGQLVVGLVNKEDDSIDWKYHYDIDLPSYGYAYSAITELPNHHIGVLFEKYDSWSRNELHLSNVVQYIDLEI
As to the kind of experiment: Bio-layer Interferometry (BLI) steady-state binding to immobilized oligosaccharides. The note with it: in words. The text has this: (§1) Lsp=lactose (no sialic acid), 3′SL=α2,3-sialyllactose, 6′SL=α2,6-sialyllactose, GD3=GD3 oligosaccharide that contains a terminal α2,8-linked Neu5Ac residue and an internal α2,3-linked Neu5Ac residue.
(§2) The pan-specific sialic acid-recognizing affinity reagent of the invention is exemplified by a NanB fragment (residues 30-697; SEQ ID NO:4) with a single mutation. Exemplary mutation sites include Y653, D270, and E541. Exemplary pan-specific affinity reagents, each having a single mutation in the NanB GH domain as noted, are shown in Table 2 and include Sia-PS1 (Y653F), Sia-PS2 (D270A), Sia-PS3 (D270N), Sia-PS4 (E541A), and Sia-PS5 (E541Q). […] They reduce (Sia-PS2 and Sia-PS3) or effectively eliminate (Sia-PS1, Sia-PS4, and Sia-PS5) catalytic activity, and they broaden specificity for sialic acid ligand binding. The pan-specific sialic acid-recognizing affinity reagent we chose for further validation study was Sia-PS1 that contains the Y653F at active site residue Tyr653. This one mutation, which involves removal of a single hydroxyl group, not only eliminates enzyme activity, but astonishingly introduces pan-specific binding into the mutated, inactivated enzyme, despite its distance from the carbohydrate binding module (CBM) domain of the NanB.
(§3) The flowchart presented in FIG. 2 outlines schematically the methods employed in Example I and II to screen, optimize and select the Lectenz® candidates. The specificity and affinity of potential Lectenz® candidates is evaluated through structurally-guided site-specific and/or site-saturation mutagenesis assays designed to enable the selection of optimal clones. Bio-layer Interferometry (BLI) is used to determine the binding kinetics and affinities for binding to glycans and glycoproteins. Affinity chromatography is performed by immobilizing the Lectenz® candidates in a column format to evaluate their ability to fractionate sialylated- and asialo-glycans and glycoconjugates. All promising Lectenz® candidates are screened against the glycan array at the CFG, which currently contains over 600 O- and N-linked glycans.
(§4) Steady-state binding constants between Lectenz® candidates and sialic acid ligands were measured by BLI.
In general terms: Biolayer interferometry detects binding as a change in optical thickness at a sensor tip.

For test [2], the target named is T2, Streptococcus pneumoniae NanB fragment (residues 30-697, SEQ ID NO:4) variant Sia-PS3, D270N (Streptococcus pneumoniae serotype 4, UniProt Q54727, D270N).
T2 construct: exemplified by a NanB fragment (residues 30-697); made in house; host or cells: pET28a+ based plasmid
T2 sequence (Q54727 30-692 D270N): T1 sequence (Q54727 30-692 E541Q) with D241N, Q512E
The test is described as above. The note with it: in words.
Description: as §1, §2, §3, §4

Numbering of substitutions follows the chain as printed.

Regarding `CC(=O)N[C@H]1[C@H]([C@H](O)[C@H](O)CO)O[C@@](O[C@H]2[C@@H](O)[C@@H](CO)O[C@@H](O[C@H]3[C@H](O)[C@@H](O)C(O)O[C@@H]3CO)[C@@H]2O)(C(=O)O)C[C@@H]1O` (stereo partly drawn) [3′SL, α2,3-sialyllactose], the binding affinity entry in test [1] and in test [2] was “micromolar or sub-micromolar” throughout.

For `CC(=O)N[C@H]1[C@H]([C@H](O)[C@H](O)CO)O[C@@](OC[C@H]2O[C@@H](O[C@H]3[C@H](O)[C@@H](O)C(O)O[C@@H]3CO)[C@H](O)[C@@H](O)[C@H]2O)(C(=O)O)C[C@@H]1O` (stereo partly drawn) [6′SL, 6′-sialyllactose (Neu5Acα2,6Galβ1, 4Glcβ, or 6′SL)], the binding affinity result in test [1] and in test [2] was “micromolar or sub-micromolar” in each case.

For the compound `CC(=O)N[C@H]1[C@H]([C@H](O)[C@H](O)CO)O[C@@](O[C@H](CO)[C@@H](O)[C@@H]2O[C@@](O[C@H]3[C@@H](O)[C@@H](CO)O[C@@H](O[C@H]4[C@H](O)[C@@H](O)C(O)O[C@@H]4CO)[C@@H]3O)(C(=O)O)C[C@H](O)[C@H]2NC(C)=O)(C(=O)O)C[C@@H]1O` (stereo partly drawn) [GD3, Neu5Acα2,8Neu5Acα2,3Galβ1, 4Glcβ], the binding affinity result in test [1] and in test [2] was “micromolar or sub-micromolar” throughout.
